Patent US11918582B2 (RAPT Therapeutics, Inc., priority 2021, dated 2024)
Counter-ions that a name gives are not always drawn.

Biological target: T1, human HPK1 (MAP4K1) (Homo sapiens, UniProt Q92918)
T1 construct: Recombinant human HPK1 kinase domain was obtained from ThermoFisher (Cat. #PV6357) and SignalChem (Cat. #M23-11G); purchased ThermoFisher; SignalChem PV6357; M23-11G
T1 sequence (Q92918 17-274 limits assumed): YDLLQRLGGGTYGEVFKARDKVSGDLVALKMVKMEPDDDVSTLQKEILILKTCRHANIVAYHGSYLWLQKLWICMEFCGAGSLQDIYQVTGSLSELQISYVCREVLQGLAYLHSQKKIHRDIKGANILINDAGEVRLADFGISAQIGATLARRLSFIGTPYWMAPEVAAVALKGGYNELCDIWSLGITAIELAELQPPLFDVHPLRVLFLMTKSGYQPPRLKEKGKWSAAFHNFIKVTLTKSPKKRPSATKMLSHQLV
Experiment: Biochemical assay for activity against HPK1 (ADP-Glo, MBP substrate)
Conditions: recombinant human HPK1 kinase domain, 1 nM enzyme, ADP-Glo luminescence
From the text: These compounds are made by the synthetic methods described earlier herein. Example 227 Biochemical Assay for Testing Compounds for Activity against HPK1
The enzymatic activity of human HPK1 (MAP4K1) was monitored in a biochemical assay in the presence or absence of compounds, using a peptide substrate (myelin basic protein, MBP), with an ADP-Glo assay kit (Promega, Cat. #V9103). An increase in phosphorylation of the peptide by HPK1 was indicative of its kinase activity.
Recombinant human HPK1 kinase domain was obtained from ThermoFisher (Cat. #PV6357) and SignalChem (Cat. #M23-11G). A 1 nM HPK1 kinase enzyme solution was prepared from the HPK1 stock received from the commercial supplier using an assay buffer containing 50 mM HEPES (4-(2-hydroxyethyl)-1-piperazineethanesulfonic acid) pH 7.5 (Fisher Scientific, Cat. #H1035), 150 mM NaCl (Fisher Scientific, Cat. #50843067), 3 mM TCEP-HCl (Tris(2-carboxyethyl)phosphine hydrochloride; Fisher Scientific, Cat. #PIPG82080), 10 mM MgCl2 (Fisher Scientific, Cat. #AM9530G), 0.005% Tween-20 (Fisher Scientific, Cat. #BP337500) and 0.01% BSA (bovine serum albumin; ThermoFisher, Cat. #15260037), in ultra-pure water. The final concentration of the assay buffer was 770 nM. A 5 mM stock solution of the peptide substrate was prepared using […] MBP (Myelin Basic Protein, Active Motif, Cat. #31314), 10 mM ATP (adenosine 5′-triphosphate; Sigma-Aldrich, Cat. #GE27-2056-01) and of assay buffer.
Test compounds were dissolved in DMSO (dimethyl sulfoxide) at 10 mM and then serial dilutions were prepared using a ViaFlow assist multichannel dispenser (Integra ViaFlo). 20 nL of test compounds at various concentrations were dispensed into a 1536-well assay plate (Corning Cat. #7247) using an Echo Nanoliter dispenser (Labcyte ECHO 550). […] of a 1 nM solution of HPK1 kinase enzyme diluted in assay buffer was added to the compound-containing plate using a Mantis Microliter dispenser (Formulatrix Mantis), covered with a lid, and incubated for 15 minutes at room temperature. 50 nL of a 5 mM stock solution of the peptide substrate (MBP) were added using the Echo Nanoliter dispenser. The plate was covered with a lid, centrifugated at 500 rpm for 1 minute and incubated for 2 hours at room temperature. […] of ADP-Glo reagent A was added using the Mantis Microliter dispenser, centrifugated at 500 rpm for 30 seconds and incubated for 40 minutes at room temperature. […] of ADP-Glo reagent B was added using the Mantis Microliter dispenser, centrifugated at 500 rpm for 30 seconds and incubated for 30 minutes at room temperature. Peptide phosphorylation was measured by luminescence on an Envision plate reader (PerkinElmer).
The HPK1 biochemical IC50 activity levels of the compounds of Examples 1-225 were tested using this assay and are shown in Table 2.

Row | IC50 [nM] | SMILES
1 | < 100 | COc1cc2c(cc1Nc1ncc3cnn(C[C@@H]4CCC[C@H]4C(=O)O)c3n1)CN(C)CC2 (racemic) [Example 182, racemic trans-2-((6-((6-methoxy-2-methyl-1,2,3,4-tetrahydroisoquinolin-7-yl)amino)-1H-pyrazolo[3,4-d]pyrimidin-1-yl)methyl)cyclopentane-1-carboxylic Acid]
2 | < 100 | COc1cc2c(cc1Nc1ncc3cnn(C(C)C)c3n1)CN(C)CC2 [Example 104, N-(1-isopropylpyrazolo[3,4-d]pyrimidin-6-yl)-6-methoxy-2-methyl-3,4-dihydro-1H-isoquinolin-7-amine]
3 | < 100 | COc1cc2c(cc1Nc1ncc3cnn(C[C@@H]4[C@@H](C)[C@@H](O)CN4C(C)=O)c3n1)CN(C)CC2 [Example 163, 1-[(2S,3R,4S)-4-hydroxy-2-[[6-[(6-methoxy-2-methyl-3,4-dihydro-1H-isoquinolin-7-yl)amino]pyrazolo[3,4-d]pyrimidin-1-yl]methyl]-3-methyl-pyrrolidin-1-yl]ethenone]
4 | < 100 | COc1cc2c(cc1Nc1ncc3cnn(CC4CC(CO)C4)c3n1)CN(C)CC2 (centres unmarked) [Example 61, (3-((6-((6-methoxy-2-methyl-1,2,3,4-tetrahydroisoquinolin-7-yl)amino)-1H-pyrazolo[3,4-d]pyrimidin-1-yl)methyl)cyclobutyl)methanol]
5 | < 100 | CC(=O)N1CCC[C@H]1Cn1ncc2cnc(Nc3cc4c(c(C(F)(F)F)c3)CCN(C)C4)nc21 [Example 62, (S)-1-(2-((6-((2-methyl-5-(trifluoromethyl)-1,2,3,4-tetrahydroisoquinolin-7-yl)amino)-1H-pyrazolo[3,4-d]pyrimidin-1-yl)methyl)182thenone182ne-1-yl)ethan-1-one]
6 | < 100 | CN1CCc2ccc(Nc3ncc4cnn(C5CCCCC5)c4n3)cc2C1 [Example 102, N-(1-cyclohexyl-1H-pyrazolo[3,4-d]pyrimidin-6-yl)-2-methyl-1,2,3,4-tetrahydroisoquinolin-7-amine]
7 | < 100 | COc1cc2c(cc1Nc1ncc3cnn([C@H]4CC[C@H](C(N)=O)C4)c3n1)CN(C)CC2 (racemic) [Example 42, rac-(1S,3S)-3-(6-((6-methoxy-2-methyl-1,2,3,4-tetrahydroisoquinolin-7-yl)amino)-1H-pyrazolo[3,4-d]pyrimidin-1-yl)cyclopentane-1-carboxamide]
8 | < 100 | CNC(=O)[C@H]1CC[C@H](n2ncc3cnc(Nc4cc5c(cc4OC)CCN(C)C5)nc32)CC1 [Example 60, (1r,4r)-4-(6-((6-methoxy-2-methyl-1,2,3,4-tetrahydroisoquinolin-7-yl)amino)-1H-pyrazolo[3,4-d]pyrimidin-1-yl)-N-methylcyclohexane-1-carboxamide]
9 | < 100 | CCOC(=O)[C@@H]1CCC[C@H](n2ncc3cnc(Nc4cc5c(cc4OC)CCN(C)C5)nc32)C1 (relative stereo) [Example 21, ethyl cis-3-(6-((6-methoxy-2-methyl-1,2,3,4-tetrahydroisoquinolin-7-yl)amino)-1H-pyrazolo[3,4-d]pyrimidin-1-yl)cyclohexane-1-carboxylate]
10 | < 100 | COc1cc2c(cc1Nc1ncc3c(C)nn(CC[C@H](C)O)c3n1)CN(C)CC2 [Example 90, (2S)-4-[6-[(6-methoxy-2-methyl-3,4-dihydro-1H-isoquinolin-7-yl)amino]-3-methyl-pyrazolo[3,4-d]pyrimidin-1-yl]butan-2-ol]
11 | < 100 | COc1cc2c(cc1Nc1ncc3cnn(CC[C@H](C)O)c3n1)CN(C)CC2 [Example 84, (S)-4-(6-((6-methoxy-2-methyl-1,2,3,4-tetrahydroisoquinolin-7-yl)amino)-1H-pyrazolo[3,4-d]pyrimidin-1-yl)butan-2-ol]
12 | < 100 | COc1cc2c(cc1Nc1ncc3cnn([C@H]4CCN(C(C)=O)C[C@H]4C)c3n1)CN(C)CC2 [Example 210, 1-((3R,4S)-4-(6-((6-methoxy-2-methyl-1,2,3,4-tetrahydroisoquinolin-7-yl)amino)-1H-pyrazolo[3,4-d]pyrimidin-1-yl)-3-methylpiperidin-1-yl)ethan-1-one]
13 | < 100 | COc1cc2c(cc1Nc1ncc3cnn(C[C@@H]4CCCN4C(=O)C(F)F)c3n1)CN(C)CC2 [Example 186, (S)-2,2-difluoro-1-(2-((6-((6-methoxy-2-methyl-1,2,3,4-tetrahydroisoquinolin-7-yl)amino)-1H-pyrazolo[3,4-d]pyrimidin-1-yl)methyl)pyrrolidin-1-yl)ethan-1-one]
14 | < 100 | CN1CCc2ccc(Nc3ncc4cnn(C[C@@H]5CCC[C@H]5C(=O)O)c4n3)cc2C1 (racemic) [Example 161, Rac-trans-2-[[6-[(2-methyl-3,4-dihydro-1H-isoquinolin-7-yl)amino]pyrazolo[3,4-d]pyrimidin-1-yl]methyl]cyclopentanecarboxylic Acid]
15 | < 100 | COc1cc2c(cc1Nc1ncc3c(C)nn([C@H]4CC[C@@H](O)C4)c3n1)CN(C)CC2 (relative stereo) [Example 149, (rel-1S,3R)-3-(6-((6-methoxy-2-methyl-1,2,3,4-tetrahydroisoquinolin-7-yl)amino)-3-methyl-1H-pyrazolo[3,4-d]pyrimidin-1-yl)cyclopentan-1-ol]
16 | < 100 | COc1cc2c(cc1Nc1ncc3cnn(C4CCCN(C(C)=O)C4)c3n1)CN(C)CC2 (centres unmarked) [Example 109, 1-(3-(6-((6-methoxy-2-methyl-1,2,3,4-tetrahydroisoquinolin-7-yl)amino)-1H-pyrazolo[3,4-d]pyrimidin-1-yl)piperidin-1-yl)ethan-1-one]
17 | < 100 | CN1CCc2ccc(Nc3ncc4cnn([C@H]5CCOC5)c4n3)cc2C1 [Example 19, (S)-2-methyl-N-(1-(tetrahydrofuran-3-yl)-1H-pyrazolo[3,4-d]pyrimidin-6-yl)-1,2,3,4-tetrahydroisoquinolin-7-amine]
18 | < 100 | CO[C@H]1CC[C@@H](n2ncc3cnc(Nc4ccc5c(c4)CN(C)CC5)nc32)CC1 [Example 36, N-(1-((cis)-4-methoxycyclohexyl)-1H-pyrazolo[3,4-d]pyrimidin-6-yl)-2-methyl-1,2,3,4-tetrahydroisoquinolin-7-amine]
19 | < 100 | COc1cc2c(cc1Nc1ncc3cnn(C[C@H]4CCCN4C(C)=O)c3n1)CN(C)CC2 [Example 117, (R)-1-(2-((6-((6-methoxy-2-methyl-1,2,3,4-tetrahydroisoquinolin-7-yl)amino)-1H-pyrazolo[3,4-d]pyrimidin-1-yl)methyl)pyrrolidin-1-yl)ethan-1-one trifluoroacetate]
20 | < 100 | COC(=O)N[C@H]1CC[C@H](n2ncc3cnc(Nc4cc5c(cc4OC)CCN(C)C5)nc32)CC1 [Example 80, trans-methyl N-[4-[6-[(6-methoxy-2-methyl-3,4-dihydro-1H-isoquinolin-7-yl)amino]pyrazolo[3,4-d]pyrimidin-1-yl]cyclohexyl]carbamate]
21 | < 100 | COc1cc2c(cc1Nc1ncc3cnn([C@H]4CCC[C@H](CO)C4)c3n1)CN(C)CC2 [Example 63, ((1S,3S)-3-(6-((6-methoxy-2-methyl-1,2,3,4-tetrahydroisoquinolin-7-yl)amino)-1H-pyrazolo[3,4-d]pyrimidin-1-yl)cyclohexyl)methanol hydrochloride]
22 | < 100 | COc1cc2c(cc1Nc1ncc3cnn([C@H]4CC[C@H](O)CC4)c3n1)CN(CCF)CC2 [Example 153, trans-4-(6-((2-(2-fluoroethyl)-6-methoxy-1,2,3,4-tetrahydroisoquinolin-7-yl)amino)-1H-pyrazolo[3,4-d]pyrimidin-1-yl)cyclohexan-1-ol]
23 | < 100 | CN1CCc2ccc(Nc3ncc4cnn(C5CCNCC5)c4n3)cc2C1 [Example 16, 2-methyl-N-(1-(piperidin-4-yl)-1H-pyrazolo[3,4-d]pyrimidin-6-yl)-1,2,3,4-tetrahydroisoquinolin-7-amine hydrochloride]
